Blank lines part the entries; values can stand above or below the molecule they belong to.
Legend:
[1] = biological target: Activin receptor type-2A (Homo sapiens) (UniProt P27037); assay: Selectivity interaction (KinomeScan (DiscoverX)) EUB0000607a ACVR2A; conditions: at 10 µM
[2] = biological target: T1, SNF-related serine/threonine-protein kinase (Homo sapiens) (UniProt Q9NRH2); assay: Selectivity interaction (ActivX KiNativ screen (kinase selectivity in THP-1 cell lysates)) EUB0000639a SNRK; assay type: subcellular; conditions: lysate, at 0.2 µM
T1 sequence (whole entry): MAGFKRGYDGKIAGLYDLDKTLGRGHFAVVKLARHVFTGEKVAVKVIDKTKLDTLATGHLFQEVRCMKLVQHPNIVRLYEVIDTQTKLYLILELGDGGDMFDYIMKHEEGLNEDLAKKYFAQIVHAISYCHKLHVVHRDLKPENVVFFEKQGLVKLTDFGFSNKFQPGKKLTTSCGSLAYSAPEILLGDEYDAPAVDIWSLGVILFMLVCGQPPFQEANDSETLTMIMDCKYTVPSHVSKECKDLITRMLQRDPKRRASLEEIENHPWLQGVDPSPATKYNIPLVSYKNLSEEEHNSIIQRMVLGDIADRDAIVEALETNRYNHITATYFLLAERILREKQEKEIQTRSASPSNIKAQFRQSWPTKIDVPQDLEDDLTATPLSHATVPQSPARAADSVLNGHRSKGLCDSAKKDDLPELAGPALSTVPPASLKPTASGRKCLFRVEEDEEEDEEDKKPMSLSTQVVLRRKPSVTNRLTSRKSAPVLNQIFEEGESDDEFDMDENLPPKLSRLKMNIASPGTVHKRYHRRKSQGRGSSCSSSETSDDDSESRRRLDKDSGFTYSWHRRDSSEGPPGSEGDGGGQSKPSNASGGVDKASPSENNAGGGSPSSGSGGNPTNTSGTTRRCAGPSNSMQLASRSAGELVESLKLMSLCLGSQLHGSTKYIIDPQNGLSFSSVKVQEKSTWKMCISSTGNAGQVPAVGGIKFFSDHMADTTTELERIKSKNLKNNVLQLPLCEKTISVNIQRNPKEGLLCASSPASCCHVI

[3] = biological target: Calcium/calmodulin-dependent protein kinase type 1D (Homo sapiens) (UniProt Q8IU85); assay: Selectivity interaction (ActivX KiNativ screen (kinase selectivity in THP-1 cell lysates)) EUB0000639a CAMK1D; assay type: subcellular; conditions: lysate, at 5 µM
[4] = biological target: T2, Cyclin-dependent kinase 11A (Homo sapiens) (UniProt Q9UQ88); assay: Selectivity interaction (ActivX KiNativ screen (kinase selectivity in THP-1 cell lysates)) EUB0000639a CDK11A; assay type: subcellular; conditions: lysate, at 1 µM
T2 sequence (whole entry): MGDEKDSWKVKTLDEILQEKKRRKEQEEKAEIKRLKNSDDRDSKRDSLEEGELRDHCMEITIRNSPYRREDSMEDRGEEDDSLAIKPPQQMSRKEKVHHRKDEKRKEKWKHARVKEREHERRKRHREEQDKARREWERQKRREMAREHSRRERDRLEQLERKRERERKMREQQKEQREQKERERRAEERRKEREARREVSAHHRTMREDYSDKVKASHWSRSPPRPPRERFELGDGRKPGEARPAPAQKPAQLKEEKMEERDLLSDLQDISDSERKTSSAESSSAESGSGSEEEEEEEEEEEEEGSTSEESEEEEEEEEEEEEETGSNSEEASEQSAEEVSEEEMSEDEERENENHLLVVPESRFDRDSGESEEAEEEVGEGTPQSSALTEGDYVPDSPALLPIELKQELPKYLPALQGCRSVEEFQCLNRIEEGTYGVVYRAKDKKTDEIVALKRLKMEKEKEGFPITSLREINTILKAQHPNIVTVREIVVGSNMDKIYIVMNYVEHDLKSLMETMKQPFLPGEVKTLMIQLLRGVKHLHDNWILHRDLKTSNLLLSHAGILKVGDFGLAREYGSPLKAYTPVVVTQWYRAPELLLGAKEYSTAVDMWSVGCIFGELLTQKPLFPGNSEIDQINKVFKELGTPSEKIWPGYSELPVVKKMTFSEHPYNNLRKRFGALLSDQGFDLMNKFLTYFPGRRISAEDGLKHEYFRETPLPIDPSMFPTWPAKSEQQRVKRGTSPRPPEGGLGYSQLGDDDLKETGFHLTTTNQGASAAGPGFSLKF

[5] = biological target: Serine/threonine-protein kinase 32C (Homo sapiens) (UniProt Q86UX6); assay: Selectivity interaction (Ambit KINOMEscan and KiNATiv profiling in Jurkat cells) EUB0000090b STK32C; assay type: cell-based; conditions: at 1 µM
[6] = biological target: Calcium/calmodulin-dependent protein kinase type 1D (Homo sapiens) (UniProt Q8IU85); assay: Selectivity interaction (KinomeScan (DiscoverX)) EUB0000655a CAMK1D; conditions: at 10 µM
[7] = biological target: T3, Mitogen-activated protein kinase 12 (Homo sapiens) (UniProt P53778); assay: Selectivity interaction (KinomeScan (DiscoverX)) EUB0000045b MAPK12
T3 sequence (whole entry): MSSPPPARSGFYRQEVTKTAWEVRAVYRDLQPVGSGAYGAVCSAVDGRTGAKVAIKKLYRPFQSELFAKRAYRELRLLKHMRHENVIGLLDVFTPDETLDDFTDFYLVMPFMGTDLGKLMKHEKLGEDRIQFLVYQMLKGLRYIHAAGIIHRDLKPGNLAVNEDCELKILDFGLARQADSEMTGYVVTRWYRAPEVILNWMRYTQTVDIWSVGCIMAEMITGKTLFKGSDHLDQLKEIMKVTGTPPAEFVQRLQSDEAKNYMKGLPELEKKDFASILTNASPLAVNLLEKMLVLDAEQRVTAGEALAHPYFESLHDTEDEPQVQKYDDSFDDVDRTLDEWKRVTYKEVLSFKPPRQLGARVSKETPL

[8] = tested on: Receptor-type tyrosine-protein kinase FLT3 (Homo sapiens), P36888 [UNDEFINED MUTATION]; conditions: at 10 µM
[9] = biological target: Serine/threonine-protein kinase 35 (Homo sapiens) (UniProt Q8TDR2); assay: Selectivity interaction (KinomeScan (DiscoverX)) EUB0001619a STK35; conditions: at 1 µM
Serine/threonine-protein kinase 35 (Homo sapiens), sequence (Q8TDR2 whole entry): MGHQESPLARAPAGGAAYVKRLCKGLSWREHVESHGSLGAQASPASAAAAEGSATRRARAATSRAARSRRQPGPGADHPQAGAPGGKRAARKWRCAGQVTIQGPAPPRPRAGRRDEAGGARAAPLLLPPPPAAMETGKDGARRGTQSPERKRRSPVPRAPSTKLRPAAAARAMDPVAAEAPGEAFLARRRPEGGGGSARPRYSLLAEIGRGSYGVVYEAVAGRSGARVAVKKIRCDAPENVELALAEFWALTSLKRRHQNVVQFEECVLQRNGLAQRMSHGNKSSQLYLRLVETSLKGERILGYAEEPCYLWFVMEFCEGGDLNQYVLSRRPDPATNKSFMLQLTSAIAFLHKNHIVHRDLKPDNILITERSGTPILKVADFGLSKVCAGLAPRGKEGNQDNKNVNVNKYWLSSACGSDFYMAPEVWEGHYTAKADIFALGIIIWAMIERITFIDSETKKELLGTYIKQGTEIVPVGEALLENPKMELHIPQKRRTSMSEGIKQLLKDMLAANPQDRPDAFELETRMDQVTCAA

Calcium/calmodulin-dependent protein kinase type 1D (Homo sapiens), sequence (Q8IU85 whole entry, looked up): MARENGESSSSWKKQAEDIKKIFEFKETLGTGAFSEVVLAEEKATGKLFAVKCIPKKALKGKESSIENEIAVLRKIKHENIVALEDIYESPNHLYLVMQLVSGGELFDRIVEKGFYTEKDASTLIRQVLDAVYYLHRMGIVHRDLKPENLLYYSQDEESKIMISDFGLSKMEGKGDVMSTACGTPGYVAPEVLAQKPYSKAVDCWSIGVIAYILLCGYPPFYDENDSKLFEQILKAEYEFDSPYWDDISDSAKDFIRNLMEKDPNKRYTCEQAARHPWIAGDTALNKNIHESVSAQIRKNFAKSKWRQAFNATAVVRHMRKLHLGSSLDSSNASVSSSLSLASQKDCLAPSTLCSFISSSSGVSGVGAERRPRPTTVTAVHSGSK
Receptor-type tyrosine-protein kinase FLT3 (Homo sapiens), P36888 [UNDEFINED MUTATION], sequence (P36888 whole entry, looked up, change not shown): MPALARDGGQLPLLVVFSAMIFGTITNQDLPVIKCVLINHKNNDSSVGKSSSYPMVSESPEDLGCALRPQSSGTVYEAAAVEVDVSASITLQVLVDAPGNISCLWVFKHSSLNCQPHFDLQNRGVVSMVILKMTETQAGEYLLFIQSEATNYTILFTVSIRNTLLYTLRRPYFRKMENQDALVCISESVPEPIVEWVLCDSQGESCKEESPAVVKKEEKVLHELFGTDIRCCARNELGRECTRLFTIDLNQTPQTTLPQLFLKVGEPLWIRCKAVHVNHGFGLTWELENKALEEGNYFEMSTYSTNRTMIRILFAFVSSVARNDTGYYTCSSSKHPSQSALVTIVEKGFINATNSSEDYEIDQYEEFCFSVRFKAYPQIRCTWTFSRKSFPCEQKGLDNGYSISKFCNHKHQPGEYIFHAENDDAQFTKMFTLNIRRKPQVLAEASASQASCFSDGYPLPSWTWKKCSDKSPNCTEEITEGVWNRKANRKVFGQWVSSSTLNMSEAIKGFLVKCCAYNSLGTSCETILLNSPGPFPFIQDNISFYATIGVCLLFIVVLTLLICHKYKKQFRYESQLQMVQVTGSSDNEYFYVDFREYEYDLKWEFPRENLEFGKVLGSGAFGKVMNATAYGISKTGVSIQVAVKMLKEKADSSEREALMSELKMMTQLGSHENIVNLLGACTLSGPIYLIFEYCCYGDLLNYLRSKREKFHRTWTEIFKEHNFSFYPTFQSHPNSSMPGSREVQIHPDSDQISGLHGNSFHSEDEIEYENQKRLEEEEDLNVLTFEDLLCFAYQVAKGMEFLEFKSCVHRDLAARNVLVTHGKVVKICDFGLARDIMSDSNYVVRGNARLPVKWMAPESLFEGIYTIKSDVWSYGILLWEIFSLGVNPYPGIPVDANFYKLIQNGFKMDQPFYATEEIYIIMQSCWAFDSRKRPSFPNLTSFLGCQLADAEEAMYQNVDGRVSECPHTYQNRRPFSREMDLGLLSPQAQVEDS
Serine/threonine-protein kinase 32C (Homo sapiens), sequence (Q86UX6 whole entry): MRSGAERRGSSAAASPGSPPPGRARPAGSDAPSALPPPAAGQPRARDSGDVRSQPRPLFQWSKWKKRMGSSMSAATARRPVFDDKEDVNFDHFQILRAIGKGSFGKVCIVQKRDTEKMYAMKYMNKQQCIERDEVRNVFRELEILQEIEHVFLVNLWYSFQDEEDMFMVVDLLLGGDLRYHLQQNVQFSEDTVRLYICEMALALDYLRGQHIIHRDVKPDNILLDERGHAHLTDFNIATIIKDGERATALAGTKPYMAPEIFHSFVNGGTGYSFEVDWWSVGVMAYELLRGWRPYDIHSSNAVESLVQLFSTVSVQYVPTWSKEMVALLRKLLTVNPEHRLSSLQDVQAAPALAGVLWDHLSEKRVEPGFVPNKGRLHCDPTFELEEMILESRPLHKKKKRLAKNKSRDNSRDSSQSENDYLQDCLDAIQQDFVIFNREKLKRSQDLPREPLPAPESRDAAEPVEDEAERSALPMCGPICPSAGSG
Activin receptor type-2A (Homo sapiens), sequence (P27037 whole entry): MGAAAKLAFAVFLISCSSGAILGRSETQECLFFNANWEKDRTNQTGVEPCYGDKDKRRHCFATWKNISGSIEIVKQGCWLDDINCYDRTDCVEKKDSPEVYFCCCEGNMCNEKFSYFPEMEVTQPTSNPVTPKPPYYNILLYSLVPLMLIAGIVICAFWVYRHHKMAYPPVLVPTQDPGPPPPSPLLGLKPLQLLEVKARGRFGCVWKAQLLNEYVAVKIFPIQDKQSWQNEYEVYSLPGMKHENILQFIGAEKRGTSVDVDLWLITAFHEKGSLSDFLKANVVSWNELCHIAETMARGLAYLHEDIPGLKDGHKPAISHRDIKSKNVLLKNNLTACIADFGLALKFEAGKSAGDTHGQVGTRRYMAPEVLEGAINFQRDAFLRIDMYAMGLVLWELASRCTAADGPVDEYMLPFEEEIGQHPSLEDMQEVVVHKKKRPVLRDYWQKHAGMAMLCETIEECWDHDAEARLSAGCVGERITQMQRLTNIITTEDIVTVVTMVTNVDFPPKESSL

Structure (SMILES): CNC(=O)Nc1ccc(-c2nc(N3CC4CCC(C3)O4)c3cnn(C4CCC5(CC4)OCCO5)c3n2)cc1
% of control [1]: 78%

% of inhibition [2]: 8.5% | % of inhibition [3]: 21.3% | % of inhibition [4]: 6.7%
Structure (SMILES): CC[C@@H]1[C@H](F)C(=O)N[C@@H]1COc1nccc2cc(C(N)=O)c(OC)cc12 [ZIMLOVISERTIB]

Structure (SMILES): CN(C)C/C=C/C(=O)Nc1ccc(C(=O)N2CCCC(Nc3ncc(Cl)c(-c4c[nH]c5ccccc45)n3)C2)cc1 (stereo not given)
% of control [5]: 71%

Structure (SMILES): CN(C)CCOc1ccc(-c2nc(-c3ccncc3)c(-c3ccc4c(c3)CC/C4=N\O)[nH]2)cc1
% of control [6]: 100%

Structure (SMILES): C=CC(=O)Nc1cc(-n2c(=O)ccc3cnc4ccc(-c5ccc(NS(C)(=O)=O)cc5)cc4c32)ccc1C
% of control ([7]; at 1 µM): 72% | % of control ([7]; at 10 µM): 79%

Structure (SMILES): Cc1cc([C@@H](C)Nc2ccccc2C(=O)O)c2nc(N3CCOCC3)cc(=O)n2c1 [AZD-6482]
% of control [8]: 53%

Structure (SMILES): N#Cc1cccc(-c2c[nH]c3ncnc(N4CCOCC4)c23)c1
% of control [9]: 62%
